Converted amounts (≈) assume the structure as drawn. Read-outs that look alike come from different tables or passages of the source.
Tests used:
MRP [1] = biological target: T1, MRP (Homo sapiens, UniProt P33527); assay: ATP-dependent transport into membrane vesicles of MRP-overexpressing HL60/ADR cells; assay type: biochemical; design: HL60/ADR cells (human leukemia cells grown in adriamycin and overexpressing MRP); endogenous in cells; host or cells: HL60/ADR (Adriamycin-selected human HL60 leukemia cells), plasma membrane vesicles
Procedure: (§1) HL60/ADR cells (human leukemia cells grown in adriamycin and overexpressing MRP), revertant HL60 cells, and parental HL60 cells, respectively, were harvested by centrifugation after cultivation in cell culture and plasma membrane vesicles were prepared according to standard methods. Briefly, the cells were lysed by incubation in hypotonic buffer (0.5 mM sodium phosphate (pH 7.0), 0.1 mM EDTA supplemented with protease inhibitors) for 1.5 hours, followed by homogenization in a homogenizer. After centrifugation of the homogenate at 12,000×g(4° C., 10 minutes), the supernatant was centrifuged at 100,000×g at 4° C. for 45 minutes. […] After centrifugation at 280,000×g at 4° C. for 2 hours, the interphase was collected, washed by centrifugation in incubation buffer (100,000×g) and passed 20 times through a 27-gauge needle.
Membrane vesicles (50 μg of protein) were incubated in the presence of 4 mM ATP, 10 mM MgCl2, 10 mM of creatine phosphate, and the labeled substrate in an incubation buffer containing 250 mM sucrose and 10 mM Tris-HCl, pH 7.4. The final volume was 110 μl. Aliquots of 20 μl were taken at predetermined times and diluted in 1 ml of ice-cold incubation buffer. The dilute samples were filtered immediately through a nitrocellulose membrane (0.2 μm pore size), presoaked in incubation buffer using a rapid filtration device and rinsed twice with 5 ml incubation buffer. The filters were immersed in liquid and measured in a liquid scintillation counter. ATP was replaced by an equal concentration of 5′-AMP in a control experiment. All rates of the ATP-dependent transport were obtained by subtracting the values obtained in the presence of 5′-AMP from those measured in the presence of ATP.

HL60/S cells = assay: Cytotoxicity of oncolytics in sensitive HL60/S cells; assay type: cell-based; conditions: Homo sapiens, HL-60
Description: (§2) See Marquardt, D., McCrone, S., and Center M. S., Cancer Res., 50: 1426, (1990). The mechanism(s) utilized by P190 to confer resistance to Adriamycin is not well understood but may involve the intracellular redistribution of Adriamycin away from the nucleus. See Marquardt, D. and Center, M. S., supra. Adriamycin is an inhibitor of topoisomerase II (Beck, W. T., Bull. Cancer, 77: 1131, (1990), which is an enzyme involved in DNA replication. Redistribution of Adriamycin away from the nucleus would therefore be an important component in cellular resistance to this drug. The studies published to date on P190 have utilized cell lines selected in vitro for resistance to Adriamycin (McGrath, T., Latoud, C., Arnold, S. T., Safa, A. R., Felsted, R. S., and Center, M. S., supra; Marquardt, D. and Center, M. S., supra; and Marquardt, D., McCrone, S., and Center M. S. Cancer Res., supra. The association of MRP (P190) with drug resistance was made by sodium dodecyl sulfate polyacrylamide gel electrophoresis (SDS-PAGE) of radioactive extracts prepared from Adriamycin-resistant HL60/Adr human leukemia cells labeled with 8-azido-alpha[^32P]ATP. See McGrath, T., Latoud, C., Arnold, S. T., Safa, A. R., Felsted, R. S., and Center, M. S., supra. The drug-resistance phenotype conferred by P190 is not limited to the anthracyclines. Epipodophyllotoxin resistance is linked to P190 expression. […]

HL60/ADR cells = assay: Cytotoxicity of oncolytics in doxorubicin-resistant HL60/Adr cells; assay type: cell-based; conditions: Homo sapiens
Description: as §2

[2] = tested on: membrane vesicles of parental and revertant HL60 cells; assay: ATP-dependent transport into membrane vesicles of parental and revertant HL60 cells (low MRP expression); assay type: biochemical, human; conditions: substrate 5 μM
Procedure: as §1
Membrane vesicles (50 μg of protein) were incubated in the presence of 4 mM ATP, 10 mM MgCl2, 10 mM of creatine phosphate, and the labeled substrate in an incubation buffer containing 250 mM sucrose and 10 mM Tris-HCl, pH 7.4. The final volume was 110 μl. […] The filters were immersed in liquid and measured in a liquid scintillation counter. […] All rates of the ATP-dependent transport were obtained by subtracting the values obtained in the presence of 5′-AMP from those measured in the presence of ATP.

MRP [3] = biological target: T1, MRP; assay: ATP-dependent transport of [3H]etoposide glucuronide / [3H]etoposide into membrane vesicles from MRP-overexpressing cells; conditions: direct transport measurement in membrane vesicles
Description: FIG. 5, Panel A illustrates the ATP-dependent transport of [^3H]etoposide glucuronide into membrane vesicles from MRP-overexpressing cells. Panel B provides a comparison of MRP-mediated ATP-dependent transport of [^3H]etoposide glucuronide and [^3H]etoposide into membrane vesicles from MRP-overexpressing cells.

T1 sequence (P33527 whole entry): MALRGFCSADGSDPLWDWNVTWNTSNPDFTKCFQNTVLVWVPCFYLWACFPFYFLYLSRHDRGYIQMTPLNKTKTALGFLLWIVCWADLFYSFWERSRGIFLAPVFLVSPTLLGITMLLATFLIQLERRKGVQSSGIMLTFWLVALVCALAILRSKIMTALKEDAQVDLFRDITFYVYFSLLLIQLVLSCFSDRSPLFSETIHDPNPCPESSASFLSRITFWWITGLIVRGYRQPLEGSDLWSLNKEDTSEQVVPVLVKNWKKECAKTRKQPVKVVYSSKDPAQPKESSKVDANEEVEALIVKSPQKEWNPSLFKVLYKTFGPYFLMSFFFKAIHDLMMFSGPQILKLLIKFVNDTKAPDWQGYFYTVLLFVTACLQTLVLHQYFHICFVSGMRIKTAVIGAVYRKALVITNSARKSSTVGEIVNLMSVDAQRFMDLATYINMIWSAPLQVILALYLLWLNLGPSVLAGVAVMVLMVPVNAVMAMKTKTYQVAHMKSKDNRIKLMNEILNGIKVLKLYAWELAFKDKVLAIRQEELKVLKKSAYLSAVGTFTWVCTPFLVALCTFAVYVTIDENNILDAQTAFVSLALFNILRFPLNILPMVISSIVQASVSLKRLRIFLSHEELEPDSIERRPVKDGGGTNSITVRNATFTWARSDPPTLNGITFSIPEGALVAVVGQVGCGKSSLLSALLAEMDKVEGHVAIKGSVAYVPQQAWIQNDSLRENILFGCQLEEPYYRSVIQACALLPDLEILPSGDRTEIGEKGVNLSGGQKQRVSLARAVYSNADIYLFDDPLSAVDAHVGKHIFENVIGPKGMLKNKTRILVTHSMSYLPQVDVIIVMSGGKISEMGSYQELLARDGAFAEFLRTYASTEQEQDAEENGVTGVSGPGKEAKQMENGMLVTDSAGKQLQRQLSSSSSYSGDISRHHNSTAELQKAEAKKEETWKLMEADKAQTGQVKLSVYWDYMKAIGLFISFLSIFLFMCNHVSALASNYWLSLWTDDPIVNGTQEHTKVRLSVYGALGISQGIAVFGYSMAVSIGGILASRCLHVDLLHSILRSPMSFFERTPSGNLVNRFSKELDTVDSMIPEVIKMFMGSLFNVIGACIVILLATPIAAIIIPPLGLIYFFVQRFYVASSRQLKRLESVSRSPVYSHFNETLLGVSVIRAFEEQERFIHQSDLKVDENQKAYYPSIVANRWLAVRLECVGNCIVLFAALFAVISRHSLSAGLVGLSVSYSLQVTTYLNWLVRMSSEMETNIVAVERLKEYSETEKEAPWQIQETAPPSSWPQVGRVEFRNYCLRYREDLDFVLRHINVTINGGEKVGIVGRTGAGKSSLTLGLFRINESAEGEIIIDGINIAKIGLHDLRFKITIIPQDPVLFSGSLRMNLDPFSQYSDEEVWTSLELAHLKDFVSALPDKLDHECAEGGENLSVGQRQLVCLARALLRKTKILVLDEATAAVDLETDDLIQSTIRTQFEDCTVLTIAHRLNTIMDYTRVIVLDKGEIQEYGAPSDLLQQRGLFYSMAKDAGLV

CCCCC/C=C\C\C=C/C=C/C=C/[C@@H](Sc1ccc(C(=O)O)cc1)[C@@H](O)CCCC(=O)O [BAY u9773]
type of inhibition of ATP-dependent LTC4 transport (MRP [1]; double-reciprocal (Lineweaver and Burk) plot): competitive inhibition
Ki (MRP [1]; inhibition of ATP-dependent transport of LTC4, vesicles of MRP-overexpressing cells, 37° C., 2 minutes, read-out: inhibition constant (Ki)): 700 nM

CCCCC/C=C\C\C=C/C=C/C=C/[C@@H](SC[C@H](N)C(=O)NCC(=O)O)[C@@H](O)CCCC(=O)O [LTD4]
substrate for the MRP protein (MRP [1]): substrates

COc1cccc2c1C(=O)c1c(O)c3c(c(O)c1C2=O)C[C@@](O)(C(=O)CO)C[C@@H]3O[C@H]1C[C@H](N)[C@H](O)[C@H](C)O1 [Adriamycin, Doxorubicin]
IC50 (HL60/S cells): 0.011 µg/mL (≈ 0.0202 µM)
IC50 (HL60/ADR cells; HL60/ADR): 2.2 µg/mL (≈ 4.05 µM)

N[C@@H](CCC(=O)N[C@@H](CSc1ccc([N+](=O)[O-])cc1[N+](=O)[O-])C(=O)NCC(=O)O)C(=O)O [S-(2,4-dinitrophenyl-[^3H]glutathione, S-(2,4-dinitrophenyl)-[^3H]glutathione]
rate of ATP-dependent transport (MRP [1]; substrate 5 μM, HL60/ADR membranes): 50+4 pmol×mg protein^−1×min^−1
transport rate compared with HL60/ADR membranes [2]: 10 times less

COc1cc([C@@H]2c3cc4c(cc3[C@@H](O[C@@H]3O[C@@H]5CO[C@@H](C)O[C@H]5[C@H](O)[C@H]3O)[C@H]3COC(=O)[C@H]23)OCO4)cc(OC)c1O [Etoposide]
IC50 (HL60/S cells): 0.39 µg/mL (≈ 0.663 µM)
substrate for MRP (MRP [3]): not a substrate for MRP
IC50 (HL60/ADR cells; HL60/Adr cells (express P190), read-out: IC50): > 10 µg/mL

CCCCC/C=C\C\C=C/C=C/C=C/[C@@H](SC[C@H](N)C(=O)O)[C@@H](O)CCCC(=O)O [LTE4]
substrate for the MRP protein (MRP [1]): substrates

COc1cc([C@@H]2c3cc4c(cc3[C@@H](O[C@@H]3O[C@@H]5CO[C@@H](C)O[C@H]5[C@H](O)[C@H]3O)[C@H]3COC(=O)[C@H]23)OCO4)cc(OC)c1O[C@@H]1O[C@H](C(=O)O)[C@@H](O)[C@H](O)[C@H]1O [etoposide glucuronide]
substrate for MRP (MRP [3]): mediated by MRP

From US6673813B2, “Methods for identifying and treating resistant tumors” (priority 1994, dated 2004)
